{"source": "patent US12178838B2", "about": "“Synthetic neuromodulatory peptides” (Lactocore, Inc., priority 2019, dated 2024)", "key": {"Sprague Dawley rats": {"system": "Sprague Dawley rats", "assay": "Predator odor stress exposure and conditioned place aversion (PTSD model)", "format": "in vivo", "settings": "DOX 1 mg/kg IP", "procedure": "Doxazosin (DOX, Sigma-Aldrich, St. Louis, MO, USA, 1 mg/kg, IP) was prepared in sterile saline. Previously it has been shown that DOX is effective in the treatment of some PTSD symptoms in veterans (Rodgman et al. (2016). Doxazosin XL reduces symptoms of posttraumatic stress disorder in veterans with PTSD: a pilot clinical trial. J. Clin. Psychiat., 77(5), e561-565). The two doses of FQSE (SEQ ID NO:10) (0.05 and 0.5 mg/kg, CS, Menlo Park, CA) were prepared fresh for each test day in sterile saline and administered intra-nasally 30 minutes prior to testing. Each dose was administered in a randomized order across groups. […] The same procedure with isoflurane was used to administer doxazosin however the drug was administered IP. Individuals performing behavioral tests were blind to drug treatment. […] Potential differences between groups that were not odor exposed and odor exposed groups were analyzed using One-Way ANOVA with drug dose as the primary factor. […]"}, "Wistar rats [1]": {"system": "Wistar rats", "assay": "Learned helplessness model: Open Field test", "format": "in vivo", "procedure": "(§1) Weigh was measured on an analytical balance, with an accuracy of 0.0001 g, the solution was prepared with a margin of 0.5 ml.\n(§2) The tetracyclic antidepressant Maprotiline (Lyudiomil), a monoamine reuptake inhibitor, was used as a positive control. Animals received a daily intraperitoneal injection (i.p) of Maprotiline for ten days (M9651, Merck, 4.5 mg/kg, dissolved in saline: 200 μl per administration).\n(§3) The state of “learned helplessness” according to modern concepts adequately reflects anxiety-depressive syndrome, reproducing the main signs of a person's endogenous depression, including the severity of effects of helplessness, hopelessness, and characteristic endocrine disorders. To develop LH, rats were subjected to uncontrolled unavoidable aversive stress (electro cutaneous irritation). […] Stimulation was performed automatically using a software randomizer.\nThe Open Field test is a classic method for assessing the level of motor activity and exploratory behavior of rodents in new stressogenic conditions. […] On the 5th day after stressing in the LH model, the rat was placed in the center of the OF. The following parameters were measured for 5 minutes: latency to start of moving, the number of crossed squares (outside, intermediate and central), the duration of the rears and immobilization time.\n(§4) “LH”—a group of animals subjected to stress, in which a depressive state of “learned helplessness” was developed. Pharmacotherapy was not performed in the LH group; the development of experimental depression was studied. […] “LH+Map.”—the comparison drug group. Maprotiline was injected intraperitoneally at a dosage of 4.5 mg/kg ten days daily to develop experimental depression."}, "Wistar rats [2]": {"system": "Wistar rats", "assay": "Learned helplessness model: Elevated Plus-Maze test", "format": "in vivo", "settings": "Map 4.5 mg/kg i/p; FQSE 0.5 and 2.5 mg/kg i/n", "procedure": "Weigh was measured on an analytical balance, with an accuracy of 0.0001 g, the solution was prepared with a margin of 0.5 ml. For the experiment, a freshly prepared FQSE (SEQ ID NO:10) solution was used; for the second day, this solution was stored in a refrigerator at +4° C. The tetracyclic antidepressant Maprotiline (Lyudiomil), a monoamine reuptake inhibitor, was used as a positive control. […] The classical paradigm of “learned helplessness” (LH) was used as an experimental model of depression ([…] et al. (1975). Learned helplessness in the rat. J. Comp. Physiol. […] The state of “learned helplessness” according to modern concepts adequately reflects anxiety-depressive syndrome, reproducing the main signs of a person's endogenous depression, including the severity of effects of helplessness, hopelessness, and characteristic endocrine disorders. To develop LH, rats were subjected to uncontrolled unavoidable aversive stress (electro cutaneous irritation). […] Stimulation was performed automatically using a software randomizer. […] The time spent by the animal inside and outside the closed arms (in the open arms and in the center), the number of transitions between the arms, the number of stretch-attended postures were evaluated. […]"}, "Wistar rats [3]": {"system": "Wistar rats", "assay": "Learned helplessness model: Porsolt forced swimming test, one-day modification", "format": "in vivo", "settings": "Maprotiline 4.5 mg/kg i/p; FQSE 0.5 mg/kg i/n", "procedure": "as §1, §2, §3, §4"}, "[4]": {"system": "corticosterone in rat plasma", "assay": "Learned helplessness model: plasma corticosterone and dexamethasone test", "format": "in vivo, rats", "procedure": "On the first day of the test (DXMT1) at 10:00 AM, animals were injected intraperitoneally with saline, then at 04:00 PM on the same day peripheral blood samples were taken to determine the basal level of the hormone, which caused stress, and 30 minutes after taking the rat from the cage and receiving initial sample, re-taken blood to measure hormone stress level.\nTo study the sensitivity of the HPA system to feedback signals, rats were injected with dexamethasone (10 μg/kg, intraperitoneally) the next day (DXMT2) at 10 am. The procedure for taking blood from the tail vein was repeated after 6 and 6.5 hours. The corticosterone content was determined by enzyme-linked immunosorbent assay with reagent kits “Corticosterone-ELISA” (“Hema”, RF) in two parallel samples.\nas §4"}, "Sprague-Dawley rats": {"system": "Sprague-Dawley rats", "assay": "Chronic restraint stress model: Porsolt Forced Swimming test", "format": "in vivo", "settings": "CRS, FQSE 3 mg/kg intranasal", "procedure": "To simulate a depressive state, experimental animals were placed in the individual restrainers (“Open Science”, Russia) for six hours daily for 14 days (hereinafter “chronic restraint stress=CRS”). In order to study the neurotrophic effect of FQSE (SEQ ID NO:10), the animals were divided into 5 groups, 10 individuals each. The groups are as follows: Group 1, control unstressed animals, receiving 10 μl (a pair of 5 μl doses) of saline intranasally; Group 2, stressed animals, receiving 10 pI of saline intranasal (CRS+Veh); Group 3, stressed animals, receiving fluoxetine (FO) at a dose of 5 mg/kg intraperitoneal (CRS+FO, positive control); Group 4, stressed animals, receiving a peptide drug at a dose of 0.3 mg/kg in 10 pI of saline intranasal (CRS+FQSE (SEQ ID NO:10) 0.3); Group 5, stressed animals, receiving a peptide drug at a dose of 3 mg/kg in […] of saline intranasal (CRS+FQSE (SEQ ID NO:10) 3). The administration of drugs was carried out daily, 30 minutes before placing rats in the restrainers. […]\nThe changes in motor activity and emotional state of animals were evaluated in the Open Field (OFT) and Porsolt Forced Swimming tests (FST) fourteen days after the start of the experiment. […] For three minutes the horizontal and vertical motor activity was measured. The total number of crossed squares, as well as the length of the distance, traveled, and the number of rears was counted. […]"}, "BDNF": {"system": "BDNF", "assay": "Western blot of brain homogenates after CRS: BDNF", "format": "in vivo, rats", "settings": "fluoxetine 5 mg/kg", "procedure": "(§5) To simulate a depressive state, experimental animals were placed in the individual restrainers (“Open Science”, Russia) for six hours daily for 14 days (hereinafter “chronic restraint stress=CRS”). […] The administration of drugs was carried out daily, 30 minutes before placing rats in the restrainers.\n(§6) At the end of the behavioral examination, the rats were decapitated, and their brains extracted for subsequent western blot analysis. A total of 51 samples of homogenized brain tissue from Sprague-Dawley rats (3-4 months old) were received from the Customer. 25 samples were homogenates of the cerebral cortex, 26 samples were homogenates of the hippocampus isolated from rat brain. The amount of homogenized tissue in each sample was less than 50 mg. […] They were Incubated in ice for 30 minutes. Then the samples were centrifuged at 12000 g, 15 minutes, +4° C.\n(§7) All the steps necessary for the analysis of protein levels of BDNF, p-p70S6k (Thr421/Ser424), p-ERK (one and two), (Thr202/Tyr204), p-GSK3β (Ser9), p-PKC (PKCG gamma Thr514) and the GAPDH reference protein were provided in the studied samples using Western blotting. […]\n(§8) The integral areas of the spots obtained were calculated as a quantitative assessment and then normalized to the amount of protein in the sample."}, "p-p70S6k (Thr421/Ser424)": {"system": "p-p70S6k (Thr421/Ser424)", "assay": "Western blot of brain homogenates after CRS: p-p70S6k", "format": "in vivo, rats", "settings": "fluoxetine 5 mg/kg", "procedure": "as §5, §6, §7, §8"}, "p-ERK 2 (Tyr204)": {"system": "p-ERK 2 (Tyr204)", "assay": "Western blot of brain homogenates after CRS: p-ERK2", "format": "in vivo, rats", "settings": "fluoxetine 5 mg/kg; FQSE 0.3 mg/kg; against stress and control levels", "procedure": "as §5, §6, §7, §8"}, "p-PKC (PKC gamma Thr514)": {"system": "p-PKC (PKC gamma Thr514)", "assay": "Western blot of brain homogenates after CRS: p-PKC", "format": "in vivo, rats", "procedure": "as §5, §6, §7, §8"}, "p-GSK3β (Ser9)": {"system": "p-GSK3β (Ser9)", "assay": "Western blot of brain homogenates after CRS: p-GSK3β", "format": "in vivo, rats", "settings": "fluoxetine; FQSE", "procedure": "as §5, §6, §7, §8"}}}
{"smiles": "COc1cc2nc(N3CCN(C(=O)C4COc5ccccc5O4)CC3)nc(N)c2cc1OC", "note": "(stereo not shown) [Doxazosin]", "values": [{"measurement": "behavior of groups not exposed to predator odor (time in randomly paired chambers)", "setting": "Sprague Dawley rats; FQSE 0.05 and 0.5 mg/kg i.n.", "result": "normal behavior"}, {"measurement": "predator odor-induced place aversion", "setting": "Sprague Dawley rats; FQSE 0.5 mg/kg intra-nasally, vs VEH", "result": "there was not a significant difference from VEH"}]}
{"smiles": "CNCCCC12CCC(c3ccccc31)c1ccccc12", "note": "[Maprotiline]", "values": [{"measurement": "vertical activity (rears)", "setting": "Wistar rats [1]; FQSE 0.5 mg/kg i/n, Map 4.5 mg/kg i/p", "result": "did not differ"}, {"measurement": "freezing time when placed in the center of the OF", "setting": "Wistar rats [1]; FQSE 2.5 mg/kg i/n, Maprotiline 4.5 mg/kg i/p, daily, vs LH group", "result": "significant decrease"}, {"measurement": "decrease in the number of animals showing immobilization after LH", "setting": "Wistar rats [1]; Maprotiline 4.5 mg/kg i/p, FQSE 2.5 mg/kg i/n", "result": 2.3, "unit": "fold"}, {"measurement": "appearance on the open arms", "setting": "Wistar rats [2]", "result": "did not reach statistical significance"}, {"measurement": "active swimming time", "setting": "Wistar rats [3]", "result": "increase in active swimming time"}, {"measurement": "time spent immobile", "setting": "Wistar rats [3]", "result": "significant reduction"}, {"measurement": "magnitude of suppression—Δ between the Saline and DXM in the stress level of corticosterone", "setting": "[4]; LH + FQSE 0.5, LH + Map.", "result": 248.5, "unit": "nmol/L"}, {"measurement": "suppression of the stress-induced increase in CS in blood after DXM", "setting": "[4]; Map 4.5 mg/kg, FQSE 0.5 mg/kg", "result": "significant suppression"}, {"measurement": "basal level of corticosterone (CS) in plasma", "setting": "[4]; Map, FQSE in both doses (0.5, 2.5 mg/kg), vs LH group", "result": "significantly lower level of CS"}]}
{"smiles": "CNCCC(Oc1ccc(C(F)(F)F)cc1)c1ccccc1", "note": "(stereo not shown) [fluoxetine]", "values": [{"measurement": "duration of active swimming", "setting": "Sprague-Dawley rats; FO 5 mg/kg intraperitoneal", "result": "no effect"}, {"measurement": "time spent passive (inactive) swimming", "setting": "Sprague-Dawley rats; FO 5 mg/kg, vs CRS+Veh", "result": "had no effect"}, {"measurement": "levels of BDNF protein in cerebral cortex and hippocampus", "setting": "BDNF", "result": "showed no relation"}, {"measurement": "levels of p-p70S6k in cerebral cortex or hippocampus", "setting": "p-p70S6k (Thr421/Ser424)", "result": "showed no relation"}, {"measurement": "cortical levels of p-ERK 2 (Tyr204)", "setting": "p-ERK 2 (Tyr204)", "result": "decreased"}, {"measurement": "levels of p-PKC (Thr 514) in the cerebral cortex", "setting": "p-PKC (PKC gamma Thr514); fluoxetine 5 mg/kg, FQSE 0.3 mg/kg", "result": "showed no changes"}, {"measurement": "normalization of p-PKC levels in the hippocampus", "setting": "p-PKC (PKC gamma Thr514); fluoxetine, FQSE", "result": "neither fluoxetine nor peptide FQSE (SEQ ID NO:10) contributed to the normalization"}, {"measurement": "p-GSK3β in the hippocampus", "setting": "p-GSK3β (Ser9)", "result": "no response"}]}
